Reference: US20140308357A1, “MELATONIN-BASED SOLUTIONS AND POWDERS FOR THEIR PREPARATION” (Eratech S.R.L., priority 2011, published 2014)
Values after ≈ are worked out from the molar mass of the structure shown.

Columns and labels:
[1] = Solubility of the powder for reconstitution (saturated solution, filtered, HPLC); format: physicochemical; settings: thermodynamic from solid
Procedure: Following the preparation of a saturate solution of the powders obtained, the same solution was filtered with a […] membrane and the filtered solution obtained was analysed by HPLC according to the method described previously.

[2] = Dissolution speed of the powder for reconstitution in water/PEG-400 (80/20); format: physicochemical; settings: 25° C.
Procedure: The entire test was conducted in temperature conditions of 25° C.
After 1 minute of manual stirring the two solutions were left to settle for 1 minute.
After 1 minute of sedimentation, the supernatant solution was sampled by taking 1 ml of it and analysing it according to the HPLC method described previously.

[3] = Osmolality and pH of solutions for administration in Water/PEG 400; format: physicochemical
[4] = cited from earlier work
[5] = Water/PEG 400 ratio 70/30, melatonin 18 mg/ml
[6] = Water/PEG 400 ratio 75/25, melatonin 14 mg/ml
[7] = Water/PEG 400 ratio 80/20, melatonin 10 mg/ml
[8] = Water/PEG 400 ratio 85/15, melatonin 7 mg/ml
[9] = Water/PEG 400 ratio 90/10, melatonin 5 mg/ml

- solubility ([1]; purified water, water, Water (Table 3a)): 1.8 mg/mL (≈ 7.75 mM)
- solubility ([1]; purified water, water, Water (Table 3b)): 1.7 mg/mL (≈ 7.32 mM)
- solubility ([1]; water/PEG-200 (75/25), aqueous with cosolvent or surfactant or cyclodextrin, Water-PEG 75/25, PEG 200): 10.5 mg/mL (≈ 45.2 mM)
- solubility ([1]; water/PEG-350 (75/25), aqueous with cosolvent or surfactant or cyclodextrin, Water-PEG 75/25, PEG 350): 16.9 mg/mL (≈ 72.8 mM)
- solubility ([1]; water/PEG-400 (75/25), aqueous with cosolvent or surfactant or cyclodextrin, Water-PEG 75/25, PEG 400): 14.5 mg/mL (≈ 62.4 mM)
- solubility ([1]; water/PEG-400 (80/20), aqueous with cosolvent or surfactant or cyclodextrin, Water-PEG-400 ratio 80-20): 11.1 mg/mL
- solubility ([1]; water/PEG-400 (90/10), aqueous with cosolvent or surfactant or cyclodextrin, Water-PEG-400 ratio 90-10): 5 mg/mL
- solubility ([1]; water/ethanol (70/30), aqueous with cosolvent or surfactant or cyclodextrin, Water-Ethanol ratio 70-30): 19.7 mg/mL
- solubility ([1]; water/ethanol (75/25), aqueous with cosolvent or surfactant or cyclodextrin, Water-Ethanol ratio 75-25): 14.2 mg/mL
- solubility ([1]; water/ethanol (80/20), aqueous with cosolvent or surfactant or cyclodextrin, Water-Ethanol ratio 80-20): 8.2 mg/mL
- solubility ([1]; water/ethanol (90/10), aqueous with cosolvent or surfactant or cyclodextrin, Water-Ethanol ratio 90-10): 3.7 mg/mL
- Visual inspection of the preparation ([2]; 30 mg melatonin in 3 ml water/PEG-400 (80/20), 1 minute manual stirring, after 1 minute settling): presence of undissolved particulate
- Concentration of melatonin in the supernatant solution ([2]; 30 mg melatonin in 3 ml water/PEG-400 (80/20), 1 minute stirring and 1 minute sedimentation): 7100 µg/mL
- Concentration of melatonin in solution ([2]; water/PEG-400 (80/20), after 10 minutes of stirring): 7900 µg/mL
- Osmolality [3, 5]: 1310 mOsm/Kg
- pH [3, 5]: 5.2
- Osmolality [3, 6]: 1014 mOsm/Kg
- pH [3, 6]: 5.2
- Osmolality [3, 7]: 754 mOsm/Kg
- pH [3, 7]: 5.2
- Osmolality [3, 8]: 530 mOsm/Kg
- pH [3, 8]: 5.2
- Osmolality [3, 9]: 335 mOsm/Kg
- pH [3, 9]: 5.2
Compound: COc1ccc2[nH]cc(CCNC(C)=O)c2c1 [Melatonin raw material, Melatonin]
- Concentration of melatonin in plasma ([4]; endogenous, circulates bound to albumin): 0.01 to 0.3 ng/mL
- Bioavailability ([4]; in vivo): approximately 15%
- Clearance following first passage through the liver ([4]; in vivo): 90%
- Half-life ([4]; in vivo): 30 to 60 min
